The text below walks through data of the NIST ThermoML archive (doi:10.1021/acs.jced.6b00471).

± gives the expanded uncertainty stated by the source.

Data set [1] in a line: refractive index (Na D-line) (dimensionless). The conditions noted are these: 298.15 K; 101.33 kPa; Liquid; Standard Abbe refractometry.
The conditions of data set [2]: Liquid; for mass density: 298.15 K, 101.33 kPa, Pycnometric method; for Normal boiling temperature: Ebulliometric method (Recirculating still).

With `CCCCO` [butan-1-ol], in data set [1], the refractive index (commonly a measure of how strongly the sample bends light) was found to be 1.397 ± 0.0007. Also, the mass density (usually mass per unit of volume) in data set [2] was found to be 805.8 ± 0.7 kg/m3.

Regarding `CC(C)CO` [2-methyl-1-propanol], the refractive index in data set [1] came to 1.3931 ± 0.0007. In data set [2], the mass density is listed as 797.4 ± 0.7 kg/m3 and the Normal boiling temperature is 107.68 ± 0.2 °C.

With `CC(C)(C)O` [2-methylpropan-2-ol], in data set [1], the refractive index is on record as 1.3857 ± 0.0007. Further, the Normal boiling temperature in data set [2] amounted to 82.36 ± 0.2 °C.

As for `CCC(C)OC(C)=O` (stereo not given) [1-methylpropyl ethanoate], the refractive index in data set [1] came out at 1.3872 ± 0.0007. Also, in data set [2], the mass density is recorded as 863.8 ± 0.8 kg/m3 and the Normal boiling temperature was 111.97 ± 0.2 °C.
